Test systems include CAKI-1; HCT-116; NCI-H460; UACC-257; HOP-62; HCC 2998; SK-MEL-2; BT-549; A549; MDA-MB-435; SNB-19; UO-31; PC-3; LOX IMVI; SK-MEL-5; MDA-MB-231; OVCAR-4; OVCAR-5; NCI-H226; RPMI-8226.
Holding throughout (assay): growth of human tumour cells (NCI), 48 h

SMILES strings stand for the structures.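 1) Cells in 96-well plates. 2) Compound, 48 h, 5 concentrations. 3) Linear interpolation between surrounding doses. 4) Unreached endpoint = highest concentration. GI50 marks 50% less growth.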 Activity calls are given as the source filed them. Cut-off read from the data, not from the text of the source: active = GI50 up to about 1.1 µM and inactive = higher.

For the molecule `O=C1C(=C(C(=O)c2ccccc2)C(=O)c2ccccc2)OC(c2ccccc2)=C1C(=O)c1ccccc1`, the GI50 is 0.597 µM (active) in the test with CAKI-1; 4.44 µM (inactive) with HCT-116; 3.02 µM (inactive) in the test with NCI-H460; 17.1 µM (inactive) in the test on UACC-257; 3.03 µM (inactive) in the test with HOP-62; 9.77 µM (inactive) in the test on HCC 2998. The GI50 was 10.8 µM (inactive) in the test on SK-MEL-2; 3.01 µM (inactive) with BT-549; 9.04 µM (inactive) with A549; 8.2 µM (inactive) with MDA-MB-435; 10.2 µM (inactive) in the test on SNB-19; 6.79 µM (inactive) with UO-31. The GI50 in the test with PC-3 was 13.2 µM (inactive); in the test with LOX IMVI, 1.77 µM (inactive); in the test with SK-MEL-5 it was 7.14 µM (inactive); in the test on MDA-MB-231, 6.61 µM (inactive); in the test with OVCAR-4, 2.79 µM (inactive); in the test with OVCAR-5, 16.9 µM (inactive). For the same molecule, the values for the GI50 with NCI-H226 and in the test with RPMI-8226 were 3.74 µM (inactive) and 5.56 µM (inactive), respectively.

For `Cc1cc(C)c2c(=N)c3ccccc3n(CCCCCCO)c2n1`, the GI50 in the test on CAKI-1 was 2.48 µM (inactive); in the test with HCT-116, 3.11 µM (inactive); in the test on NCI-H460 it was 1.69 µM (inactive); in the test on UACC-257, 4.75 µM (inactive); in the test on HOP-62, 4.53 µM (inactive); with HCC 2998, 2.81 µM (inactive). The GI50 in the test on SK-MEL-2 was 3.27 µM (inactive); in the test on BT-549, 6.89 µM (inactive); in the test on A549, 3.3 µM (inactive); with MDA-MB-435, 4.38 µM (inactive); in the test on SNB-19 it was 5.6 µM (inactive); in the test on UO-31 it was 1.63 µM (inactive). For the same molecule, the GI50 in the test on PC-3 is 2.21 µM (inactive); with LOX IMVI it was 1.91 µM (inactive); with SK-MEL-5, 2.55 µM (inactive); with MDA-MB-231 it was 3.68 µM (inactive); with OVCAR-4 it was 2.45 µM (inactive); in the test with OVCAR-5 it was 4.91 µM (inactive). Besides, the GI50 with NCI-H226 is 3.87 µM (inactive); in the test on RPMI-8226, 1.38 µM (inactive).

For the molecule `COc1ccc(C(C)c2cc3c(cc2O)OCO3)cc1` (stereo not given), the GI50 in the test on CAKI-1 is 25.2 µM (inactive); in the test with HCT-116, 15.9 µM (inactive); in the test with NCI-H460, 14.7 µM (inactive); with UACC-257, 15.6 µM (inactive); with HOP-62, 16.4 µM (inactive); with HCC 2998, 7.01 µM (inactive). Moreover, the GI50 with SK-MEL-2 is 14.9 µM (inactive); in the test with BT-549 it was 16.7 µM (inactive); in the test on A549, 14.7 µM (inactive); with MDA-MB-435, 4.56 µM (inactive); in the test with SNB-19, 23.5 µM (inactive); with UO-31 it was 16.2 µM (inactive). Moreover, the GI50 in the test with PC-3 was 15.7 µM (inactive); in the test on LOX IMVI, 13.2 µM (inactive); with SK-MEL-5, 14.8 µM (inactive); in the test on MDA-MB-231 it was 14.2 µM (inactive); in the test on OVCAR-4, 31.3 µM (inactive); in the test on OVCAR-5, 20.6 µM (inactive). Moreover, the results for the GI50 in the test with NCI-H226 and with RPMI-8226 were 19.7 µM (inactive) and 16.8 µM (inactive), respectively.

For `COC1CC(C)([N+](=O)[O-])C(O)C(C)O1` (stereo not given), the GI50 with CAKI-1, in the test with HCT-116, in the test with NCI-H460, in the test on UACC-257, in the test on HOP-62 and in the test with HCC 2998 was > 100 µM (inactive) each time. Further, the GI50 was > 100 µM (inactive) in the test with SK-MEL-2; 91.6 µM (inactive) in the test on BT-549; > 100 µM (inactive) in the test with A549; > 100 µM (inactive) with MDA-MB-435; > 100 µM (inactive) with SNB-19; > 100 µM (inactive) in the test on UO-31. For the same molecule, the GI50 with PC-3, with LOX IMVI, with SK-MEL-5, with MDA-MB-231, in the test with OVCAR-4 and in the test on OVCAR-5 was > 100 µM (inactive) throughout. Moreover, the GI50 in the test on NCI-H226 and in the test on RPMI-8226 was > 100 µM (inactive) throughout.

With `COc1ccc(NC(=O)CC(=O)NNC(Sc2ccccc2)c2cc(/N=N/c3ccc(Br)cc3)ccc2O)cc1` (stereo not given), the GI50 in the test with CAKI-1 was > 10 µM (inactive); in the test with HCT-116, 4.81 µM (inactive); in the test with NCI-H460, > 10 µM (inactive); with UACC-257, > 10 µM (inactive); with HOP-62 it was > 10 µM (inactive); in the test on HCC 2998, > 10 µM (inactive). The GI50 with SK-MEL-2, with BT-549, with A549, in the test with MDA-MB-435, in the test with SNB-19 and in the test with UO-31 was > 10 µM (inactive) in each case. The GI50 in the test on PC-3 is > 10 µM (inactive); in the test with LOX IMVI, > 10 µM (inactive); in the test with SK-MEL-5, > 10 µM (inactive); with MDA-MB-231, > 10 µM (inactive); with OVCAR-4 it was 9.12 µM (inactive); with OVCAR-5, > 10 µM (inactive). The GI50 in the test on NCI-H226 is 2.74 µM (inactive); in the test with RPMI-8226, > 10 µM (inactive).

Take `CC(=O)O[C@H]1CCC2[C@@H]3CCC4NC(=O)C(C#N)C[C@]4(C)C3CC[C@@]21C` (stereo not given in full): the GI50 with CAKI-1, in the test with HCT-116, in the test with NCI-H460, with UACC-257, in the test with HOP-62 and in the test with HCC 2998 was > 10 µM (inactive) each time. Besides, the GI50 in the test with SK-MEL-2, with BT-549, in the test with A549, in the test on MDA-MB-435, in the test with SNB-19 and in the test on UO-31 was > 10 µM (inactive) each time. Moreover, the GI50 in the test with PC-3, with LOX IMVI, with SK-MEL-5, in the test on MDA-MB-231, in the test with OVCAR-4 and in the test on OVCAR-5 was > 10 µM (inactive) throughout. In addition, the GI50 in the test on NCI-H226 and with RPMI-8226 was > 10 µM (inactive) each time.

Consider `CC(=O)O[C@H]1/C(=C/c2ccncc2)C[C@H]2[C@@H]3CC=C4C[C@@H](N5CCCC5)CC[C@]4(C)[C@H]3CC[C@]12C`, for which the GI50 is 14 µM (inactive) in the test on CAKI-1; 3.41 µM (inactive) in the test on HCT-116; 10.8 µM (inactive) in the test on NCI-H460; 2.34 µM (inactive) with UACC-257; 14.2 µM (inactive) in the test on HOP-62; 12.2 µM (inactive) in the test on HCC 2998. The GI50 in the test with SK-MEL-2 was 15.5 µM (inactive); with BT-549, 20.5 µM (inactive); with A549 it was 11.8 µM (inactive); in the test on MDA-MB-435, 12.1 µM (inactive); in the test with SNB-19, 16.9 µM (inactive); in the test on UO-31 it was 4.99 µM (inactive). Besides, the GI50 in the test with PC-3 is 11.7 µM (inactive); with LOX IMVI, 2.32 µM (inactive); in the test with SK-MEL-5 it was 8.53 µM (inactive); with MDA-MB-231 it was 19.1 µM (inactive); in the test on OVCAR-4, 15.9 µM (inactive); with OVCAR-5, 13.2 µM (inactive). The values for the GI50 in the test on NCI-H226 and with RPMI-8226 were 19.3 µM (inactive) and 6.1 µM (inactive), respectively.

`CC(=O)Oc1ccc(/C=C/C(=O)OCCOC(=O)/C=C/c2ccc(OC(C)=O)c(OC(C)=O)c2)cc1OC(C)=O`: the GI50 was 3.26 µM (inactive) in the test with CAKI-1; 4.66 µM (inactive) in the test on HCT-116; 11.9 µM (inactive) in the test with NCI-H460; 10.5 µM (inactive) in the test on UACC-257; 1.26 µM (inactive) in the test on HOP-62; 14.5 µM (inactive) with HCC 2998. Besides, the GI50 was 17.5 µM (inactive) with SK-MEL-2; 15.7 µM (inactive) with BT-549; 16.1 µM (inactive) in the test on A549; 6.55 µM (inactive) in the test on MDA-MB-435; 11.9 µM (inactive) in the test on SNB-19; 4.01 µM (inactive) in the test on UO-31. In addition, the GI50 in the test on PC-3 is 12.1 µM (inactive); in the test with LOX IMVI, 4.59 µM (inactive); in the test on SK-MEL-5, 7.36 µM (inactive); in the test with MDA-MB-231, 14.5 µM (inactive); in the test with OVCAR-4, 4.63 µM (inactive); with OVCAR-5, 14.6 µM (inactive). In addition, the GI50 in the test with NCI-H226 is 14.9 µM (inactive); with RPMI-8226, 4.12 µM (inactive).

`O=[As](O)(O)c1ccc(Cc2ccc([As](=O)(O)O)cc2)cc1`: the GI50 with CAKI-1 was 0.955 µM (active); with HCT-116 it was 0.895 µM (active); in the test on NCI-H460, 0.91 µM (active); in the test with UACC-257, 0.499 µM (active); with HOP-62, 1.31 µM (inactive); with HCC 2998, 1.91 µM (inactive). Further, the GI50 in the test with SK-MEL-2 was 1.35 µM (inactive); in the test on BT-549 it was 1.18 µM (inactive); in the test with A549 it was 1.81 µM (inactive); in the test with MDA-MB-435, 0.577 µM (active); with SNB-19 it was 1.15 µM (inactive); in the test with UO-31, 1.24 µM (inactive). The GI50 is 0.546 µM (active) in the test on PC-3; 0.336 µM (active) in the test with LOX IMVI; 0.632 µM (active) with SK-MEL-5; 1.01 µM (active) with MDA-MB-231; 1.9 µM (inactive) in the test on OVCAR-4; 2.34 µM (inactive) with OVCAR-5. Further, the GI50 in the test on NCI-H226 was 3.78 µM (inactive); in the test with RPMI-8226, 0.284 µM (active).

Consider `COC(=O)/C(C#N)=C(\Nc1ccccc1)N1CCOCC1`, for which the GI50 with CAKI-1, with HCT-116, in the test on NCI-H460, with UACC-257, with HOP-62 and in the test with HCC 2998 was > 100 µM (inactive) in each case. Further, the GI50 in the test on SK-MEL-2, in the test with BT-549, in the test with A549, in the test on MDA-MB-435, in the test on SNB-19 and with UO-31 was > 100 µM (inactive) each time. For the same molecule, the GI50 with PC-3, in the test with LOX IMVI, in the test with SK-MEL-5, in the test on MDA-MB-231, in the test with OVCAR-4 and in the test with OVCAR-5 was > 100 µM (inactive) in each case. For the same molecule, the GI50 in the test with NCI-H226 and in the test with RPMI-8226 was > 100 µM (inactive) in each case.

Values taken from ChEMBL document CHEMBL1201862, “PubChem BioAssay data set” (2004).
